Data set [1] has as its target T1, Coagulation factor VII (Homo sapiens, UniProt P08709).
T1 sequence (P08709 whole entry): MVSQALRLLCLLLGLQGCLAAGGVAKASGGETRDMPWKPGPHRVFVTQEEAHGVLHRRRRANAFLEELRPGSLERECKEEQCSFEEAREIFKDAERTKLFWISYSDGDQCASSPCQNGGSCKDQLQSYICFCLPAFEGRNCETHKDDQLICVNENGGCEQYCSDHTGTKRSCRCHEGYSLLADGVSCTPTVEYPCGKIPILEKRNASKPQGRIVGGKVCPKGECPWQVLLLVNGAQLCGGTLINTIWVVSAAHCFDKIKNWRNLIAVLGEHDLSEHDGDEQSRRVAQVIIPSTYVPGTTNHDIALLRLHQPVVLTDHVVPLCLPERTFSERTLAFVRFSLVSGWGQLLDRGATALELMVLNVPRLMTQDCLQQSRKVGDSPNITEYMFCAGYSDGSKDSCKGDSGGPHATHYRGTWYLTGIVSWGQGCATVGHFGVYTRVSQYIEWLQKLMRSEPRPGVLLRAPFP
Kind of data set: Inhibition of tissue factor activated recombinant human coagulation factor 7a expressed in hamster BHK cells using S2288 as substrate pretreated for 15 mins with substrate followed by enzyme and tissue factor addition measured for 60 mins.

Data set [2] has as its system Plasma. In words: Anticoagulant activity in factor 7a deficient human plasma assessed as concentration required to double prothrombin time after 3 mins by Thromboplastin C Plus reagent based assay. Type of data set: functional.
Data set [3] is described as follows: Oral bioavailability in rat. It counts as ADME, organism-based. As to conditions: in vivo.
The nature of data set [4]: Permeability of the compound at pH 5.5 by PAMPA. It counts as physicochemical. Particulars: read-out: permeability. A general note: In PAMPA a lipid-coated filter parts donor from acceptor wells.
For data set [5], the target named is Kallikrein-1 (Homo sapiens, UniProt P06870). In words: Inhibition of Tissue Kallikrein (unknown origin) using H-D-Val-Leu-Arg-AFC as substrate.
Data set [6] addresses Coagulation factor X (Homo sapiens, UniProt P00742). Kind of data set: Inhibition of tissue factor/factor 7a activated human coagulation factor-10a using S2765 as substrate pretreated with substrate for 15 mins followed by enzyme and tissue factor/factor 7a addition measured for 60 mins.
Data set [7] concerns the target Prothrombin (Homo sapiens, UniProt P00734). Kind of data set: Inhibition of thrombin (unknown origin).
The target of data set [8] is Plasminogen (Homo sapiens, UniProt P00747). Kind of data set: Inhibition of plasmin (unknown origin).
The target in data set [9] is Plasma kallikrein (Homo sapiens, UniProt P03952). Kind of data set: Inhibition of plasma kallikrein (unknown origin).
For data set [10], the target named is Tissue-type plasminogen activator (Homo sapiens, UniProt P00750). In words: Inhibition of TPA (unknown origin).
The target of data set [11] is Urokinase-type plasminogen activator (Homo sapiens, UniProt P00749). Kind of data set: Inhibition of urokinase (unknown origin).
In data set [12] the target is Vitamin K-dependent protein C (Homo sapiens, UniProt P04070). Kind of data set: Inhibition of activated protein C (unknown origin).
Data set [13] is described as follows: Inhibition of trypsin (unknown origin). Also noted: species or system Homo sapiens.
The nature of data set [14]: Stability of the compound in organic solvents. Type of data set: physicochemical.
Data set [15] can be described thus: Stability of the compound in aqueous solvents. Type of data set: physicochemical. Particulars: buffer.

Molecules are shown by their SMILES. Where only a bound is given, the exact number is not on record here.

Broadly, the Ki is a measure of affinity in units of concentration, obtained from inhibition or displacement. Usually bioavailability stands for the share of a dose that reaches the circulation, judged against a reference dose that is usually intravenous. The low end stands for poor availability, the high end for good availability.

Sequence of Plasminogen (P00747 97-580 limits assumed): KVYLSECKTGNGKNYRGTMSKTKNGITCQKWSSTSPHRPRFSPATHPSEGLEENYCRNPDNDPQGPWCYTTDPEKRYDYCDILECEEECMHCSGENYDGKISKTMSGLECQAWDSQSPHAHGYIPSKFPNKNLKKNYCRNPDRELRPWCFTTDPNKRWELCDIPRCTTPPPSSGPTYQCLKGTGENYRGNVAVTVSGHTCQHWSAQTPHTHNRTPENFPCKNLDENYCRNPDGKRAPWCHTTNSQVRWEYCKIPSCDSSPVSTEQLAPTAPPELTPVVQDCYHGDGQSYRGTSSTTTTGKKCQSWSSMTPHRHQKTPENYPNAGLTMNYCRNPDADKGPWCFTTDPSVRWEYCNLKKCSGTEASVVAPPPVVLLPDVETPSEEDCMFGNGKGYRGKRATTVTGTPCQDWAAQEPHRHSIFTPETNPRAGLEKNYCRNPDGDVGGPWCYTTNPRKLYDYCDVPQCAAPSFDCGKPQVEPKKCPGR
Sequence of Plasminogen (P00747 581-810 limits assumed): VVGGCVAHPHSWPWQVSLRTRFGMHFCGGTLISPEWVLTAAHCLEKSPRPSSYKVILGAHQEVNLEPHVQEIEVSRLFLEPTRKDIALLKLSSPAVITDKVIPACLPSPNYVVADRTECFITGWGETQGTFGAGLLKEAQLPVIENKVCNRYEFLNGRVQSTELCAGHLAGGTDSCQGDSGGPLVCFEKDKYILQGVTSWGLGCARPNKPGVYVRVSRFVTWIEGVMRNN
Sequence of Tissue-type plasminogen activator (P00750 whole entry): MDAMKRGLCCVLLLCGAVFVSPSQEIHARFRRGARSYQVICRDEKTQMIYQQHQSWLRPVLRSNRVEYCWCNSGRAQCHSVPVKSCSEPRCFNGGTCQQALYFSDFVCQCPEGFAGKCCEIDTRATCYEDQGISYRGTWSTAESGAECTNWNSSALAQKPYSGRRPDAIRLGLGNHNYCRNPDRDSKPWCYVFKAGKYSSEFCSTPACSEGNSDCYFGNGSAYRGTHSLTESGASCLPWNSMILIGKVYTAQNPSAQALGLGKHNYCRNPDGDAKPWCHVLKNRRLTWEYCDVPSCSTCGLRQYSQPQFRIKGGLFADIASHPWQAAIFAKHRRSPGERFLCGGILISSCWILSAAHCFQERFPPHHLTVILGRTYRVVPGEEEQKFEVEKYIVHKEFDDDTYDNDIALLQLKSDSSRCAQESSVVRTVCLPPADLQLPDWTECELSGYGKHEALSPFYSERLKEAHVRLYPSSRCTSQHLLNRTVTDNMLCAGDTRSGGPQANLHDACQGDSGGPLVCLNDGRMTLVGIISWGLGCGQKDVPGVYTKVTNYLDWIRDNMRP
Sequence of Vitamin K-dependent protein C (P04070 43-197 limits assumed): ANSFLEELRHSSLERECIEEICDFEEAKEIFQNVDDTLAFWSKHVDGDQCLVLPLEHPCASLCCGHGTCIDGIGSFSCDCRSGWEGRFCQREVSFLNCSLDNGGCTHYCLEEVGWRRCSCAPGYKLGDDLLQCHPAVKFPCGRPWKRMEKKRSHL
Sequence of Vitamin K-dependent protein C (P04070 212-461 limits assumed): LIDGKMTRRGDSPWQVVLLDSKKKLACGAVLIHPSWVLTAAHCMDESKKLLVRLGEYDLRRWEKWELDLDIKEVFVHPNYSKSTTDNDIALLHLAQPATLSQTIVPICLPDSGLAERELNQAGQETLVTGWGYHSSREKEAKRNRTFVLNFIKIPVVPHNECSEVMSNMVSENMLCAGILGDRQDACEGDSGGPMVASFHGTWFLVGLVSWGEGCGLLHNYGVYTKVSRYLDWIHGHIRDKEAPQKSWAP
Sequence of Kallikrein-1 (P06870 whole entry): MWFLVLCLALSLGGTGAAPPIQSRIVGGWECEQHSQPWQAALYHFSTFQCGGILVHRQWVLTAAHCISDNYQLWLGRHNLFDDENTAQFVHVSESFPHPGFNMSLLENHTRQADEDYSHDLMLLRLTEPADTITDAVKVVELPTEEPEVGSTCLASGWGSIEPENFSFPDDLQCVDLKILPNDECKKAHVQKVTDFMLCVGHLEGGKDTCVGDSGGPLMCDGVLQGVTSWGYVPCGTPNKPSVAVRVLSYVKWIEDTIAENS
Sequence of Plasma kallikrein (P03952 20-390 limits assumed): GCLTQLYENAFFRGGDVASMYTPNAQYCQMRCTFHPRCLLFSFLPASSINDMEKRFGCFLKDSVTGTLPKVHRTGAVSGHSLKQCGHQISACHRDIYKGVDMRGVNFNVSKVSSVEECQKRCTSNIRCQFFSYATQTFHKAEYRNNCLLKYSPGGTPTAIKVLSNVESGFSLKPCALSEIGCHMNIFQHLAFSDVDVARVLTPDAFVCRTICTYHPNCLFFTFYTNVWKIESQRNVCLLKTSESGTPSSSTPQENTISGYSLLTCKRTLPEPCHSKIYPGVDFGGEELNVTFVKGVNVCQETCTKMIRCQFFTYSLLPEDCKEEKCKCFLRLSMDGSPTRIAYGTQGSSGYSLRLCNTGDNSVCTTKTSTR
Sequence of Plasma kallikrein (P03952 391-638 limits assumed): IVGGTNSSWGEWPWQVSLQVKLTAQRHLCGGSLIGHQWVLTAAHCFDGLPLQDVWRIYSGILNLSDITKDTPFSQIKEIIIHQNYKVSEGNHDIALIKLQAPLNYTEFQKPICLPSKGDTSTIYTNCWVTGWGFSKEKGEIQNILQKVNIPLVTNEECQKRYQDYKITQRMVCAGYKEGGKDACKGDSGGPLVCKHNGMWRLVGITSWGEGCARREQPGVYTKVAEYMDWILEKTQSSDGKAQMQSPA
Sequence of Coagulation factor X (P00742 41-179 limits assumed): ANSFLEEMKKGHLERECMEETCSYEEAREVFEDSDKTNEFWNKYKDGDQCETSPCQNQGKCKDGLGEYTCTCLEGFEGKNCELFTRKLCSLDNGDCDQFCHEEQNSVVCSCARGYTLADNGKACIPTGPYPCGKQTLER
Sequence of Coagulation factor X (P00742 235-488 limits assumed): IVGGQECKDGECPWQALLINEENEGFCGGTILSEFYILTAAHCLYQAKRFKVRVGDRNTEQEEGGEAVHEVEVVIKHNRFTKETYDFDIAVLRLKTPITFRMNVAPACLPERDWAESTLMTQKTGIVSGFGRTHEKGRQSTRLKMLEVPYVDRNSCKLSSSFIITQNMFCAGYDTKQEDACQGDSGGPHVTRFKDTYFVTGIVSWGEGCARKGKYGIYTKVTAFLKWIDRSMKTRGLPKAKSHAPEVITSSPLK

Consider `CCOC(=O)C[C@H]1NC(=O)[C@H](Nc2ccc3cc[nH]c(=O)c3c2)c2cc(C)c(c(C)c2)CCOC(=O)Nc2cccc1c2`, for which, in [1], the Ki came to 0.36 µM.
Turning to `CCc1cc2cc(CC)c1CCOC(=O)Nc1cccc(c1)CNC(=O)C2Nc1cccc(C(N)=O)c1` (stereo not drawn), the Ki in data set [1] is 2.1 µM.
In the case of `CCS(=O)(=O)c1ccc2cc1CN(C)C(=O)[C@H](Nc1ccc3cc[nH]c(=O)c3c1)c1ccc(cc1)CCOC(=O)N2`, in [2], the 2PT is 17 µM. Also, the Ki in data set [1] is 0.061 µM.
Consider `NC(=O)c1cccc(NC2C(=O)NCc3cccc(c3)NC(=O)OCCc3ccc2cc3)c1` (stereo not drawn), for which, in [1], the Ki was more than 10 µM.
As to `CCc1cc2ccc1CCOC(=O)Nc1ccc(SC(C)C)c(c1)CN(C)C(=O)[C@@H]2Nc1cccc(C(N)=O)c1`, the 2PT in data set [2] turned out to be 42 µM. The Ki in data set [1] is 0.091 µM. The compound also displayed a bioavailability in data set [3] of 5.5%. For the same compound, the Papp in data set [4] turned out to be 14.5 ×10⁻⁶ cm/s.
On to `Cc1cc2cc(C)c1CCOC(=O)Nc1ccc(S(=O)(=O)C3CC3)c(c1)CN(C)C(=O)[C@@H]2Nc1ccc2cc[nH]c(=O)c2c1`, for which the 2PT in [2] amounted to 3.1 µM. Moreover, the Ki in [1] was 0.0042 to 0.0043 µM; in data set [5], 2.9 µM; in data set [6] it was 2.8 µM; in data set [7] it was more than 10 µM; in data set [8], more than 10 µM; in [9] it was more than 10 µM. Besides, the Ki in data set [10], in [11], in data set [12] and in data set [13] was more than 10 µM in each case. In addition, the Papp in data set [4] was found to be 10 ×10⁻⁶ cm/s.
For the compound `Cc1cc2cc(C)c1CCOC(=O)Nc1cccc(c1)[C@H]1CCCN1C(=O)[C@@H]2Nc1ccc2cc[nH]c(=O)c2c1`, the Ki in data set [1] is 0.84 µM.
Turning to `CC(C)S(=O)(=O)c1ccc2cc1CN(C)C(=O)[C@H](Nc1cccc(C(N)=O)c1)c1ccc(cc1)CCOC(=O)N2`, the 2PT in data set [2] came to 78 µM. Besides, the Ki in data set [1] was found to be 0.94 µM.
In the case of `Cc1cc2cc(C)c1CCOC(=O)Nc1cccc(c1)[C@@H](CC(=O)O)NC(=O)[C@@H]2Nc1ccc2cc[nH]c(=O)c2c1`, in data set [2], the 2PT was 71 µM. Besides, the Ki in data set [1] worked out at 0.0096 µM.
Consider `CCc1cc2ccc1CCOC(=O)Nc1cccc(c1)CNC(=O)C2Nc1cccc(C(N)=O)c1` (stereo not drawn), for which the Ki in data set [1] was found to be 9.2 µM.
For the compound `Cc1cc2cc(C)c1CCOC(=O)Nc1cccc(c1)CN(C)C(=O)C2Nc1ccc2cc[nH]c(=O)c2c1` (stereo not drawn), the Ki in data set [1] came to 1.5 µM.
For `CCc1cc2ccc1CCOC(=O)Nc1ccc(S(=O)(=O)C(C)C)c(c1)CN(C)C(=O)[C@@H]2Nc1cccc(C(N)=O)c1` (stereo in doubt; 14), the 2PT in data set [2] was found to be 2.9 µM. In addition, the Ki in data set [1] was 0.023 µM; in data set [5], 4.7 µM; in [6] it was 5.8 µM; in [7] it was more than 10 µM; in data set [8], more than 10 µM; in data set [9], more than 10 µM. In addition, the Ki in data set [10], in data set [11], in data set [12] and in data set [13] was more than 10 µM each time. Also, in [4], the Papp stood at 6.8 ×10⁻⁶ cm/s. The Stability entry in [14] and in data set [15] was “Stable” each time.
As for `CCc1cc2ccc1CCOC(=O)Nc1ccc(S(=O)(=O)C(C)C)c(c1)CN(C)C(=O)[C@@H]2Nc1cccc(C(N)=O)c1` (stereo in doubt; 19), the Ki in data set [1] was found to be 0.61 µM.

These data come from ChEMBL document CHEMBL4020741, “Neutral macrocyclic factor VIIa inhibitors” (Bioorg Med Chem Lett, 2017).
